The values that follow come from ChEMBL document CHEMBL2073995, “Possible involvement of P-glycoprotein in renal excretion of pazufloxacin in rats” (Eur J Pharmacol, 2004).

In this data set the target is ATP-dependent translocase ABCB1 (Homo sapiens, UniProt P08183). The experiment in a line: TP_TRANSPORTER: cell accumulation in K562/ADR cells. Format: functional, cell-based.
ATP-dependent translocase ABCB1, sequence (P08183 whole entry): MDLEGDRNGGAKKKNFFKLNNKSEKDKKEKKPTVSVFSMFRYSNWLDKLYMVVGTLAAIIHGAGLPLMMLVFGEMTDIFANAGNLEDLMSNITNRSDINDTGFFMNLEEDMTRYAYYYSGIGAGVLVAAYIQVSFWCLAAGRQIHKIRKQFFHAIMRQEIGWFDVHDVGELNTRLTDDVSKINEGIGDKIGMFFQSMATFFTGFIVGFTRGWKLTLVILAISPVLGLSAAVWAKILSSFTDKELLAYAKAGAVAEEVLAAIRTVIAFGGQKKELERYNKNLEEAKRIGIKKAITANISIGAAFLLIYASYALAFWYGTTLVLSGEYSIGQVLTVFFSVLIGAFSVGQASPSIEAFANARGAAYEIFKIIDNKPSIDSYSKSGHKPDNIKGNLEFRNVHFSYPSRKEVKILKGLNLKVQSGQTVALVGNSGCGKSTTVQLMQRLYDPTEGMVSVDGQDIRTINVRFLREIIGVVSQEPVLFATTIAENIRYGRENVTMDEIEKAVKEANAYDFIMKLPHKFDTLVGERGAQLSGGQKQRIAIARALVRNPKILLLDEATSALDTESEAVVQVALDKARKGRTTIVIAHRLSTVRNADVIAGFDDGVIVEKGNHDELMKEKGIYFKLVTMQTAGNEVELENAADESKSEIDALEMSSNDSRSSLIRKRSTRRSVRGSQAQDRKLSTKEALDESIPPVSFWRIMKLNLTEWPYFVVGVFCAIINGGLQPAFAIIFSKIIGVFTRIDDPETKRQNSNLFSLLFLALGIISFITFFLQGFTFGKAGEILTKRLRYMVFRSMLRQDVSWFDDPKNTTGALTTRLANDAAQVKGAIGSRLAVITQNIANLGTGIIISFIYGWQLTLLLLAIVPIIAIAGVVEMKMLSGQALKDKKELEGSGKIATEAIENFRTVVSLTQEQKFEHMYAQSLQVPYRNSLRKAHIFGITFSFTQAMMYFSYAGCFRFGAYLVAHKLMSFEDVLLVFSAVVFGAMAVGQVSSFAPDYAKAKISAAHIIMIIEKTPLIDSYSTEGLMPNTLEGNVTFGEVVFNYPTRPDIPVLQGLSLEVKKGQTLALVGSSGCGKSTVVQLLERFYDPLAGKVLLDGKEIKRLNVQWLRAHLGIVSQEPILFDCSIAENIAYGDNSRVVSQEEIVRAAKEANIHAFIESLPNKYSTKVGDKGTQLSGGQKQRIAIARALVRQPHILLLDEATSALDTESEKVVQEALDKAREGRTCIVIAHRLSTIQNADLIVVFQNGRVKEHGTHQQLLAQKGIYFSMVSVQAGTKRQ

Take `C[C@H]1COc2c(C3(N)CC3)c(F)cc3c(=O)c(C(=O)O)cn1c23` [PAZUFLOXACIN]: the Activity entry was “substrate [+]”.
